Test results from ChEMBL document CHEMBL1147657, “Indanesulfonamides as carbonic anhydrase inhibitors. Toward structure-based design of selective inhibitors of the tumor-associated isozyme CA IX” (J Med Chem, 2006).

Molecular target: Carbonic anhydrase 9 (Homo sapiens, UniProt Q16790)

Ki [nM]	SMILES
33	NS(=O)(=O)c1ccc2c(c1)CC(NC(=O)c1c(F)c(F)c(F)c(F)c1F)C2 (configuration not stated)
3.7	CCCCCCCCCC(=O)NC1Cc2ccc(S(N)(=O)=O)cc2C1 (configuration not stated)
